From PubChem BioAssay (NCI)
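48-hour exposure; five concentrations; linearly interpolated endpoints. TGI: total growth inhibition.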

How the values were obtained:
Assay in all cases: NCI-60 cell line screen, 48 h
NCI-H23 lung = system: NCI-H23 lung
SF-268 CNS = system: SF-268 CNS
SK-OV-3 ovarian = system: SK-OV-3 ovarian
OVCAR-3 ovarian = system: OVCAR-3 ovarian
COLO 205 colon = system: COLO 205 colon
SK-MEL-5 melanoma = system: SK-MEL-5 melanoma
SNB-19 CNS = system: SNB-19 CNS
NCI-H226 lung = system: NCI-H226 lung
K-562 leukemia = system: K-562 leukemia
SF-295 CNS = system: SF-295 CNS
UO-31 renal = system: UO-31 renal
OVCAR-8 ovarian = system: OVCAR-8 ovarian
MOLT-4 leukemia = system: MOLT-4 leukemia
NCI-H522 lung = system: NCI-H522 lung
U251 CNS = system: U251 CNS
SN12C renal = system: SN12C renal
HCT-15 colon = system: HCT-15 colon
SW-620 colon = system: SW-620 colon

| Structure (SMILES) | TGI (NCI-H23 lung) [µM] | TGI (SF-268 CNS) [µM] | TGI (SK-OV-3 ovarian) [µM] | TGI (OVCAR-3 ovarian) [µM] | TGI (COLO 205 colon) [µM] | TGI (SK-MEL-5 melanoma) [µM] | TGI (SNB-19 CNS) [µM] | TGI (NCI-H226 lung) [µM] | TGI (K-562 leukemia) [µM] | TGI (SF-295 CNS) [µM] | TGI (UO-31 renal) [µM] | TGI (OVCAR-8 ovarian) [µM] | TGI (MOLT-4 leukemia) [µM] | TGI (NCI-H522 lung) [µM] | TGI (U251 CNS) [µM] | TGI (SN12C renal) [µM] | TGI (HCT-15 colon) [µM] | TGI (SW-620 colon) [µM] |
| --- | --- | --- | --- | --- | --- | --- | --- | --- | --- | --- | --- | --- | --- | --- | --- | --- | --- | --- |
| CCOc1ccc(N=Nc2ccc3oc(=O)c(/C(C)=N\NC(=O)CC(=O)Nc4ccc(Cl)cc4)cc3c2)cc1 | 41.9 | 41.5 | 41.8 | 30.4 | > 100 | 38.7 | > 100 | > 100 | 70.6 | 34.3 | 36.9 | 34.4 | 28.8 | 50.1 | 34 | 81.1 | 26.4 | 38.8 |
| COC(=O)C1=COC2OC3/C(=C\c4ccc(O)c(OC)c4)C(=O)OC34C=CC1C24 (centres undefined) | 32.5 | 35.3 | 31 | 28.2 | 43.8 | > 100 | 35.3 | 29.2 | 37.6 | 32.5 | 28.3 | 37.7 | > 100 | 28.8 | 28.5 | 35.1 | 27.7 | 35.9 |
| CCOC(=O)C1(C(=O)OCC)CSC1 | > 100 | > 100 | > 100 | > 100 | > 100 | > 100 | > 100 | > 100 | > 100 | > 100 | > 100 | > 100 | > 100 | > 100 | > 100 | > 100 | > 100 | > 100 |
